Molecules are shown by their SMILES.

For 27 compounds, IC50 results are on record in US8859574B2 (IRM LLC, priority 2008, dated 2014).

The target of the assay is T1, IGF-1R Ba/F3 (Homo sapiens, UniProt P08069).
T1 construct: fused on or other part: TEL- (or BCR-) IGF-1R in Ba/F3: the kinase part holds the site
T1 sequence (P08069 999-1274 limits assumed): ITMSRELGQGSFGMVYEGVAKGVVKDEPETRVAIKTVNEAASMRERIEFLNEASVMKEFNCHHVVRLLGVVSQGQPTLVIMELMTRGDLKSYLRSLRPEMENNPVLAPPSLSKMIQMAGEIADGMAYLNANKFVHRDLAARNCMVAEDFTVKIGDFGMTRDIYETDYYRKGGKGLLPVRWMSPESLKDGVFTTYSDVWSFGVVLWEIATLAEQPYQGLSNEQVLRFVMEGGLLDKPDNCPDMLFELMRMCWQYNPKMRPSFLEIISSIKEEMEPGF
Put plainly: Ba/F3 Cell Viability Inhibition Assay (IGF-1R Ba/F3). Type of assay: cell-based, murine. As to conditions: Tel-TK transformed Ba/F3 cells, 48 hours, Britelite luminescence. The gist of the method: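 A 48 h compound treatment at 37 °C (3750 cells/well) was followed by Britelite luminescence to measure viability. Cells were Ba/F3 pro-B cells, IL-3-independent via TEL-fused IGF-1R kinase transduction. A logistic fit gave IC50 as 50% viability relative to DMSO control.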
`Cc1cc(Nc2ncc(Cl)c(Nc3cc[nH]n3)n2)c(OC(C)C)cc1C1CCN(C)CC1` [Compound 161, 5-chloro-N2-(2-isopropoxy-5-methyl-4-(1-methylpiperidin-4-yl)phenyl)-N4-(1H-pyrazol-3-yl)pyrimidine-2,4-diamine] returned an IC50 of 332 nM.
As for `CCc1cc(Nc2nc(Nc3cc(C)c(C4CCN(C)CC4)cc3F)ncc2Cl)n[nH]1` [Compound 271, 5-chloro-N4-(5-ethyl-1H-pyrazol-3-yl)-N2-(2-fluoro-5-methyl-4-(1-methylpiperidin-4-yl)phenyl)pyrimidine-2,4-diamine], the figure is 13 nM.
Regarding `Cc1cc(Nc2nc(Nc3cc(C)c(C4CCN(C(=O)CN5CCN(C)CC5)CC4)cc3F)ncc2Cl)n[nH]1` [Compound 105, 1-(4-(4-(5-chloro-4-(5-methyl-1H-pyrazol-3-ylamino)pyrimidin-2-ylamino)-5-fluoro-2-methylphenyl)piperidin-1-yl)-2-(4-methylpiperazin-1-yl)ethanone], the midpoint of inhibition, the IC50, lay at 51 nM.
As for `CCN1CCC(c2cc(C)c(Nc3ncc(Cl)c(Nc4cc(C)[nH]n4)n3)cc2C(F)(F)F)CC1` [Compound 241, 5-chloro-N2-(4-(1-ethylpiperidin-4-yl)-2-methyl-5-(trifluoromethyl)phenyl)-N4-(5-methyl-1H-pyrazol-3-yl)pyrimidine-2,4-diamine], the figure is 68 nM.
The compound `Cc1cc(Nc2nc(Nc3cc(C)c(C4CCN(Cc5cncnc5)CC4)cc3C)ncc2Cl)n[nH]1` [Compound 317, 5-chloro-N2-(2,5-dimethyl-4-(1-(pyrimidin-5-ylmethyl)piperidin-4-yl)phenyl)-N4-(5-methyl-1H-pyrazol-3-yl)pyrimidine-2,4-diamine] came in with an IC50 of 4 nM.
As for `Cc1cc(Nc2nc(Nc3cc(C)c(C4CCN(C(C)C)CC4)cc3C)ncc2Cl)n[nH]1` [Compound 12, 5-chloro-N2-(4-(1-isopropylpiperidin-4-yl)-2,5-dimethylphenyl)-N4-(5-methyl-1H-pyrazol-3-yl)pyrimidine-2,4-diamine], the figure is 10 nM.
For `COCC(=O)N1CCC(c2cc(C)c(Nc3ncc(Cl)c(Nc4cc(C)[nH]n4)n3)cc2C)CC1` [Compound 106, 1-(4-(4-(5-chloro-4-(5-methyl-1H-pyrazol-3-ylamino)pyrimidin-2-ylamino)-2,5-dimethylphenyl)piperidin-1-yl)-2-methoxyethanone] the value was 2 nM.
For `Cc1cc(Nc2nc(Nc3cc(C)c(C4CCN(C(=O)CCN(C)C)CC4)cc3F)ncc2Cl)n[nH]1` [Compound 78, 1-(4-(4-(5-chloro-4-(5-methyl-1H-pyrazol-3-ylamino)pyrimidin-2-ylamino)-5-fluoro-2-methylphenyl)piperidin-1-yl)-3-(dimethylamino)propan-1-one] the value was 138 nM; for `Cc1cc(Nc2nc(Nc3cc(C)c(C4CCN(Cc5ccccn5)CC4)cc3C)ncc2Cl)n[nH]1` [Compound 307, 5-chloro-N2-(2,5-dimethyl-4-(1-(pyridin-2-ylmethyl)piperidin-4-yl)phenyl)-N4-(5-methyl-1H-pyrazol-3-yl)pyrimidine-2,4-diamine], 7 nM; for `Cc1cc(Nc2nc(Nc3cc(C)c(C4CCN(Cc5noc(C(C)(C)C)n5)CC4)cc3F)ncc2Cl)n[nH]1` [Compound 267, N2-(4-(1-((5-tert-butyl-1,2,4-oxadiazol-3-yl)methyl)piperidin-4-yl)-2-fluoro-5-methylphenyl)-5-chloro-N4-(5-methyl-1H-pyrazol-3-yl)pyrimidine-2,4-diamine], 77 nM.
As to `Cc1cc(Nc2nc(Nc3cc(C)c(C4CCN(C(=O)c5cnn(C)c5C(F)(F)F)CC4)cc3F)ncc2Cl)n[nH]1` [Compound 130, (4-(4-(5-chloro-4-(5-methyl-1H-pyrazol-3-ylamino)pyrimidin-2-ylamino)-5-fluoro-2-methylphenyl)piperidin-1-yl)(1-methyl-5-(trifluoromethyl)-1H-pyrazol-4-yl)methanone], the IC50 was 61 nM.
For `Cc1cc(Nc2nc(Nc3cc(C)c(C4CCCNC4)cc3C)ncc2Cl)n[nH]1` (stereo not drawn) [Compound 15, 5-chloro-N2-(2,5-dimethyl-4-(piperidin-3-yl)phenyl)-N4-(5-methyl-1H-pyrazol-3-yl)pyrimidine-2,4-diamine] the value was 50 nM.
As for `Cc1cc(Nc2nc(Nc3cc(C)c(C4CCN(CCCS(=O)(=O)N5CCCC5)CC4)cc3F)ncc2Cl)n[nH]1` [Compound 244, 5-chloro-N2-(2-fluoro-5-methyl-4-(1-(3-(pyrrolidin-1-ylsulfonyl)propyl)piperidin-4-yl)phenyl)-N4-(5-methyl-1H-pyrazol-3-yl)pyrimidine-2,4-diamine], the figure is 84 nM; as for `Cc1cc(Nc2nc(Nc3cc(C)c(C4CCN(Cc5cnccn5)CC4)cc3C)ncc2Cl)n[nH]1` [Compound 318, 5-chloro-N2-(2,5-dimethyl-4-(1-(pyrazin-2-ylmethyl)piperidin-4-yl)phenyl)-N4-(5-methyl-1H-pyrazol-3-yl)pyrimidine-2,4-diamine], 10 nM.
For `Cc1cc(Nc2nc(Nc3cc(C)c(C4CCN(C5CS(=O)(=O)C5)CC4)cc3F)ncc2Cl)n[nH]1` [Compound 148, 5-chloro-N^2-(2-fluoro-5-methyl-4-(1-(1,1-dioxido-3-thietanyl)piperidin-4-yl)phenyl)-N^4-(5-methyl-1H-pyrazol-3-yl)pyrimidine-2,4-diamine] the value was 18 nM; for `Cc1cc(Nc2nc(Nc3cc(C)c(C4CCN(C5CN(S(C)(=O)=O)C5)CC4)cc3F)ncc2Cl)n[nH]1` [Compound 300, 5-chloro-N2-(2-fluoro-5-methyl-4-(1-(1-(methylsulfonyl)azetidin-3-yl)piperidin-4-yl)phenyl)-N4-(5-methyl-1H-pyrazol-3-yl)pyrimidine-2,4-diamine], 32 nM; for `Cc1cc(Nc2nc(Nc3cc(C)c(C4CCN(C(=O)c5c(C)nn(C)c5C)CC4)cc3F)ncc2Cl)n[nH]1` [Compound 129, (4-(4-(5-chloro-4-(5-methyl-1H-pyrazol-3-ylamino)pyrimidin-2-ylamino)-5-fluoro-2-methylphenyl)piperidin-1-yl)(1,3,5-trimethyl-1H-pyrazol-4-yl)methanone], 25 nM.
With `Cc1cc(Nc2nc(Nc3cc(C)c(C4CCN(C(=O)[C@@H]5C(O)CCN5C)CC4)cc3F)ncc2Cl)n[nH]1` (stereo in doubt) [Compound 139, (4-(4-(5-chloro-4-(5-methyl-1H-pyrazol-3-ylamino)pyrimidin-2-ylamino)-5-fluoro-2-methylphenyl)piperidin-1-yl)((2S,3R)-3-hydroxy-1-methylpyrrolidin-2-yl)methanone], the IC50 came to 175 nM.
For `Cc1cc(Nc2nc(Nc3cc(C)c(C4CCN(C(=O)Cn5cccc5)CC4)cc3F)ncc2Cl)n[nH]1` [Compound 100, 1-(4-(4-(5-chloro-4-(5-methyl-1H-pyrazol-3-ylamino)pyrimidin-2-ylamino)-5-fluoro-2-methylphenyl)piperidin-1-yl)-2-(1H-pyrrol-1-yl)ethanone] the value was 25 nM.
In turn, `Cc1cc(Nc2nc(Nc3cc(C)c(C4CCN(C(=O)c5ccc[nH]5)CC4)cc3F)ncc2Cl)n[nH]1` [Compound 124, (4-(4-(5-chloro-4-(5-methyl-1H-pyrazol-3-ylamino)pyrimidin-2-ylamino)-5-fluoro-2-methylphenyl)piperidin-1-yl)(1H-pyrrol-2-yl)methanone] had a half-maximal inhibitory concentration (IC50) of 145 nM.
For `COCCN1CCC(c2cc(C)c(Nc3ncc(Cl)c(Nc4cc(C)[nH]n4)n3)cc2C)CC1` [Compound 212, 5-chloro-N2-(4-(1-(2-methoxyethyl)piperidin-4-yl)-2,5-dimethylphenyl)-N4-(5-methyl-1H-pyrazol-3-yl)pyrimidine-2,4-diamine] the value was 13 nM; for `Cc1cc(Nc2nc(Nc3cc(C)c(C4CCN(Cc5ccncc5)CC4)cc3F)ncc2Cl)n[nH]1` [Compound 288, 5-chloro-N2-(2-fluoro-5-methyl-4-(1-(pyridin-4-ylmethyl)piperidin-4-yl)phenyl)-N4-(5-methyl-1H-pyrazol-3-yl)pyrimidine-2,4-diamine], 93 nM; for `CCN1CCC(c2cc(C)c(Nc3ncc(Cl)c(Nc4cc(C)[nH]n4)n3)cc2C)CC1` [Compound 211, 5-chloro-N2-(4-(1-ethylpiperidin-4-yl)-2,5-dimethylphenyl)-N4-(5-methyl-1H-pyrazol-3-yl)pyrimidine-2,4-diamine], 9 nM.
For `Cc1cc(Nc2nc(Nc3cc(C)c(C4CCN(C(=O)N5CCNC5=O)CC4)cc3C)ncc2Cl)n[nH]1` [Compound 113, 1-(4-(4-(5-chloro-4-(5-methyl-1H-pyrazol-3-ylamino)pyrimidin-2-ylamino)-2,5-dimethylphenyl)piperidine-1-carbonyl)imidazolidin-2-one] the value was 13 nM; for `Cc1cc(Nc2nc(Nc3cc(C)c(C4CCN(S(=O)(=O)CCCN5CCC5)CC4)cc3C)ncc2Cl)n[nH]1` [Compound 195, N2-(4-(1-(3-(azetidin-1-yl)propylsulfonyl)piperidin-4-yl)-2,5-dimethylphenyl)-5-chloro-N4-(5-methyl-1H-pyrazol-3-yl)pyrimidine-2,4-diamine], 27 nM.
As for `Cc1cc(Nc2nc(Nc3cc(C)c(C4CCN(C(=O)CN5CCOCC5)CC4)cc3F)ncc2Cl)n[nH]1` [Compound 97, 1-(4-(4-(5-chloro-4-(5-methyl-1H-pyrazol-3-ylamino)pyrimidin-2-ylamino)-5-fluoro-2-methylphenyl)piperidin-1-yl)-2-morpholinoethanone], the figure is 20 nM.
`Cc1cc(Nc2nc(Nc3cc(C)c(C4CCN(C(=O)[C@@H]5CCCN5C)CC4)cc3C)ncc2Cl)n[nH]1` [Compound 121, (S)-(4-(4-(5-chloro-4-(5-methyl-1H-pyrazol-3-ylamino)pyrimidin-2-ylamino)-2,5-dimethylphenyl)piperidin-1-yl)(1-methylpyrrolidin-2-yl)methanone]: the IC50 is 17 nM.
